# Measurements from ChEMBL document CHEMBL1909046, “DrugMatrix in vitro pharmacology data”.
# Biological target: T1, Alpha-2A adrenergic receptor (Homo sapiens, UniProt P08913); also: in other assays of this panel Not Active means under 50% inhibition at 10 µM
# T1 sequence (P08913 whole entry): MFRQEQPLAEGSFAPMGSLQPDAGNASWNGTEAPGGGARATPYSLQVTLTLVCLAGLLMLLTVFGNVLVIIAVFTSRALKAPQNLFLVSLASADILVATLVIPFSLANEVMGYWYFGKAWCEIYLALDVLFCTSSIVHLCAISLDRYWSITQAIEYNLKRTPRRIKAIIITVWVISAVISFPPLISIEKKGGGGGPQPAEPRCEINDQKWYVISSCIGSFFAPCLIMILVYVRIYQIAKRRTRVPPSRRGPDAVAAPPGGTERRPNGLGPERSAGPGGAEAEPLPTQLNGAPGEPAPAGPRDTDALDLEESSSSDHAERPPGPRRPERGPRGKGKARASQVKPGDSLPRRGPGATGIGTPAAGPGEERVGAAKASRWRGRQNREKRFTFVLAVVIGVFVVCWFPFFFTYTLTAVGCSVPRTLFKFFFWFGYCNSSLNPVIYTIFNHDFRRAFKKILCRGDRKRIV
# Assay: not given
# Type: cell membranes, Sf9, Membrane
# Conditions: sf9
row,Compound,IC50
1,Nc1ccc(S(N)(=O)=O)cc1 [SULFANILAMIDE],Not Active
2,CC1CN(c2cc3c(cc2F)c(=O)c(C(=O)O)cn3-c2ccc(F)cc2F)CCN1 (stereo not drawn) [TEMAFLOXACIN],Not Active
3,COS(C)(=O)=O [METHANESULFONIC ACID METHYL ESTER],Not Active

# Biological target: Beta-2 adrenergic receptor (Homo sapiens, UniProt P07550)
# Sequence (P07550 whole entry): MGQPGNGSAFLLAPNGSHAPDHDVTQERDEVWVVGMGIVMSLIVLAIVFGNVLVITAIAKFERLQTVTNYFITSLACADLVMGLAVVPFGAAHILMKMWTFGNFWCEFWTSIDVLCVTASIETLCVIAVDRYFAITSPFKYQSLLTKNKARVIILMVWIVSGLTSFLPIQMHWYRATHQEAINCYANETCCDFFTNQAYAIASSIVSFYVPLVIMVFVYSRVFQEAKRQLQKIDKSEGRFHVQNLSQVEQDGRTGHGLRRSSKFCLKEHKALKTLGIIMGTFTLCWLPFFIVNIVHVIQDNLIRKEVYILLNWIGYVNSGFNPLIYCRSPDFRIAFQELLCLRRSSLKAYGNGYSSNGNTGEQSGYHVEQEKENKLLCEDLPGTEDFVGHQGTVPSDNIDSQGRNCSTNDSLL
# Assay: DRUGMATRIX: Adrenergic beta2 radioligand binding (ligand: [3H] CGP-12177)
# Type: cell membranes, Membrane
# Conditions: cho; Not Active = under 50% inhibition at 10 µM
row,Compound,IC50
1,Nc1ccc(S(N)(=O)=O)cc1 [SULFANILAMIDE],Not Active
2,CC1CN(c2cc3c(cc2F)c(=O)c(C(=O)O)cn3-c2ccc(F)cc2F)CCN1 (stereo not drawn) [TEMAFLOXACIN],Not Active
3,COS(C)(=O)=O [METHANESULFONIC ACID METHYL ESTER],Not Active

# Biological target: Aldo-keto reductase family 1 member B1 (Rattus norvegicus, UniProt P07943);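 also: inhibition of aldose reductase enzyme activity, measured with DL-glyceraldehyde as the substrate; in other assays of this panel Not Active means under 50% inhibition at 10 µM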
# Assay: not given
# Type: tissue-based, Lens of camera-type eye
# Conditions: not given
row,Compound,IC50
1,Nc1ccc(S(N)(=O)=O)cc1 [SULFANILAMIDE],Not Active
2,CC1CN(c2cc3c(cc2F)c(=O)c(C(=O)O)cn3-c2ccc(F)cc2F)CCN1 (stereo not drawn) [TEMAFLOXACIN],Not Active
3,COS(C)(=O)=O [METHANESULFONIC ACID METHYL ESTER],Not Active

# Test system: not listed separately
# Assay: DRUGMATRIX: Atrial Natriuretic Factor (ANF) radioligand binding (ligand: [125I] ANF (rat))
# Type: cell membranes, Cavia porcellus, Dunkin-Hartley, Adrenal gland, Membrane
# Conditions: Not Active = under 50% inhibition at 10 µM
Compound,IC50,Ki
Nc1ccc(S(N)(=O)=O)cc1 [SULFANILAMIDE],Not Active,Not Active
CC1CN(c2cc3c(cc2F)c(=O)c(C(=O)O)cn3-c2ccc(F)cc2F)CCN1 (stereo not drawn) [TEMAFLOXACIN],Not Active,Not Active
COS(C)(=O)=O [METHANESULFONIC ACID METHYL ESTER],Not Active,Not Active

# Test system: not listed separately
# Assay: DRUGMATRIX: beta-Lactamase enzyme inhibition (substrate: Nitrocefin)
# Set-up: species or system Bacillus cereus
# Conditions: Not Active = under 50% inhibition at 10 µM
Compound,IC50,Ki
Nc1ccc(S(N)(=O)=O)cc1 [SULFANILAMIDE],Not Active,Not Active
CC1CN(c2cc3c(cc2F)c(=O)c(C(=O)O)cn3-c2ccc(F)cc2F)CCN1 (stereo not drawn) [TEMAFLOXACIN],Not Active,Not Active
COS(C)(=O)=O [METHANESULFONIC ACID METHYL ESTER],Not Active,Not Active

# Test system: not listed separately
# Assay: DRUGMATRIX: Calcium Channel Type L, Dihydropyridine radioligand binding (ligand: [3H] Nitrendipine)
# Type: cell membranes, Rattus norvegicus, Wistar, Cerebral cortex, Membrane
# Conditions: Not Active = under 50% inhibition at 10 µM
Compound,IC50,Ki
Nc1ccc(S(N)(=O)=O)cc1 [SULFANILAMIDE],Not Active,Not Active
CC1CN(c2cc3c(cc2F)c(=O)c(C(=O)O)cn3-c2ccc(F)cc2F)CCN1 (stereo not drawn) [TEMAFLOXACIN],Not Active,Not Active
COS(C)(=O)=O [METHANESULFONIC ACID METHYL ESTER],Not Active,Not Active

# Biological target: 5-hydroxytryptamine receptor 2B (Homo sapiens, UniProt P41595); also: in other assays of this panel Not Active means under 50% inhibition at 10 µM
# Sequence (P41595 whole entry): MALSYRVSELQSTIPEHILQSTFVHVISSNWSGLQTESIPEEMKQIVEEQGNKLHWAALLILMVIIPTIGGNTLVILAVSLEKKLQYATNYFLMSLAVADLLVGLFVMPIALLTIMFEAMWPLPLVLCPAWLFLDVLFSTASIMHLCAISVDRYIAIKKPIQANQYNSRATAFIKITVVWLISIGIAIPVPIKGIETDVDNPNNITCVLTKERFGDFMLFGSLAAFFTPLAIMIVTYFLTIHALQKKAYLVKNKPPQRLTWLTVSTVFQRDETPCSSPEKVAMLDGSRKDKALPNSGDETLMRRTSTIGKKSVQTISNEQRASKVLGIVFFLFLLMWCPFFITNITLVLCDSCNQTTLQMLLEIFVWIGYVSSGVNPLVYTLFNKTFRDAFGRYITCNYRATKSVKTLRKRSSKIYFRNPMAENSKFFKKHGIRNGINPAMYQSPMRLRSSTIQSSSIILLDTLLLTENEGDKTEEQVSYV
# Assay: not given
# Type: cell membranes, CHO-K1, Membrane
# Conditions: cho-k1
row,Compound,IC50
1,Nc1ccc(S(N)(=O)=O)cc1 [SULFANILAMIDE],Not Active
2,CC1CN(c2cc3c(cc2F)c(=O)c(C(=O)O)cn3-c2ccc(F)cc2F)CCN1 (stereo not drawn) [TEMAFLOXACIN],Not Active
3,COS(C)(=O)=O [METHANESULFONIC ACID METHYL ESTER],Not Active

# Biological target: Substance-P receptor (Homo sapiens, UniProt P25103); also: in other assays of this panel Not Active means under 50% inhibition at 10 µM
# Sequence (P25103 whole entry): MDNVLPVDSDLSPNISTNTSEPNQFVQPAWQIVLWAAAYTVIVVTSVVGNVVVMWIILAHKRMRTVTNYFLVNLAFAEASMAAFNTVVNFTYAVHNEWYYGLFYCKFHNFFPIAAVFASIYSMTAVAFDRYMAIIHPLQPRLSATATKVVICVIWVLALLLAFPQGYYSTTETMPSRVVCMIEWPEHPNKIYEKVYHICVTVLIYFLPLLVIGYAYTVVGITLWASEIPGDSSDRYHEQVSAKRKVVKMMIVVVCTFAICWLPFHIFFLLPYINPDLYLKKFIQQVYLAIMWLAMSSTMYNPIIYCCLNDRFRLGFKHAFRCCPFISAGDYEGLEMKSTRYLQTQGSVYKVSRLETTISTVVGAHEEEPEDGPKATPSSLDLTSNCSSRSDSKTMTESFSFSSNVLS
# Assay: not given
# Type: cell membranes, CHO, Membrane
# Conditions: cho
row,Compound,IC50
1,Nc1ccc(S(N)(=O)=O)cc1 [SULFANILAMIDE],Not Active
2,CC1CN(c2cc3c(cc2F)c(=O)c(C(=O)O)cn3-c2ccc(F)cc2F)CCN1 (stereo not drawn) [TEMAFLOXACIN],Not Active
3,COS(C)(=O)=O [METHANESULFONIC ACID METHYL ESTER],Not Active

# Biological target: Vascular endothelial growth factor receptor 1 (Homo sapiens, UniProt P17948); also: in other assays of this panel Not Active means under 50% inhibition at 10 µM
# Sequence (P17948 whole entry): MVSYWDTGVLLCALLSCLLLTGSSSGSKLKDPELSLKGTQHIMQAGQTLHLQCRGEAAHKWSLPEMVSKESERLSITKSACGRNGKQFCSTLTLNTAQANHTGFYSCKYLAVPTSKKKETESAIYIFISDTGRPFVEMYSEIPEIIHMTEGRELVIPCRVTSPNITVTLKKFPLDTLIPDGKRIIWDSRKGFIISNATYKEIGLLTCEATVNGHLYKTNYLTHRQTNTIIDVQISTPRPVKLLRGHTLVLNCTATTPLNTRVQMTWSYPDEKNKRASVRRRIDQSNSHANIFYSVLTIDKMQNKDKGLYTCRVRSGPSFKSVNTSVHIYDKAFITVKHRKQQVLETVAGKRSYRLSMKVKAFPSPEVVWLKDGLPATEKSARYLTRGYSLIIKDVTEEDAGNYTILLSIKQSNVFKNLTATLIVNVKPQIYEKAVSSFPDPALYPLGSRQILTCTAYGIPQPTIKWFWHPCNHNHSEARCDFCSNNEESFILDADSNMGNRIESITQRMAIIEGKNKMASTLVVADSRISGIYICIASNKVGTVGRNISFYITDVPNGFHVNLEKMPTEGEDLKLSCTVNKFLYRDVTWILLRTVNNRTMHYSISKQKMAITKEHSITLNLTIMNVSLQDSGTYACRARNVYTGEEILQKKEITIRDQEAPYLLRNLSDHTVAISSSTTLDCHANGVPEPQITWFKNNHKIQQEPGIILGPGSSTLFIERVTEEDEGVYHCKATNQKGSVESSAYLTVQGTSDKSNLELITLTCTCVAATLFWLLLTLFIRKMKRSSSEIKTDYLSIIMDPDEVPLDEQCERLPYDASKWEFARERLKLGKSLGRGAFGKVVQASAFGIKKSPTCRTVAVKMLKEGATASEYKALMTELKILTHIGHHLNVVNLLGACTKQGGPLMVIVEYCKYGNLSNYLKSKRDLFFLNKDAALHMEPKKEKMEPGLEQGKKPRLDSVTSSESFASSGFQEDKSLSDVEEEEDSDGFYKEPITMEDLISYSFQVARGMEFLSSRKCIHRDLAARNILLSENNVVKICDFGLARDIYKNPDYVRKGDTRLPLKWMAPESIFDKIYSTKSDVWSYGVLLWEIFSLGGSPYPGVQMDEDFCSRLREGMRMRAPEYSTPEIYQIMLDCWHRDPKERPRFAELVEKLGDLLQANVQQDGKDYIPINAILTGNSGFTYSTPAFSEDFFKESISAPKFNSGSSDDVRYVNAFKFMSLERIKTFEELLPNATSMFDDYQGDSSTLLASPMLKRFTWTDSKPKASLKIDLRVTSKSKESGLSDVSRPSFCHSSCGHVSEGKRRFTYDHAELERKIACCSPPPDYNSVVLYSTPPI
# Assay: not given
# Type: cell-based
# Conditions: huvec
row,Compound,IC50
1,Nc1ccc(S(N)(=O)=O)cc1 [SULFANILAMIDE],Not Active
2,CC1CN(c2cc3c(cc2F)c(=O)c(C(=O)O)cn3-c2ccc(F)cc2F)CCN1 (stereo not drawn) [TEMAFLOXACIN],Not Active
3,COS(C)(=O)=O [METHANESULFONIC ACID METHYL ESTER],Not Active

# Biological target: C-C chemokine receptor type 5 (Homo sapiens, UniProt P51681); also: in other assays of this panel Not Active means under 50% inhibition at 10 µM
# Sequence (P51681 whole entry): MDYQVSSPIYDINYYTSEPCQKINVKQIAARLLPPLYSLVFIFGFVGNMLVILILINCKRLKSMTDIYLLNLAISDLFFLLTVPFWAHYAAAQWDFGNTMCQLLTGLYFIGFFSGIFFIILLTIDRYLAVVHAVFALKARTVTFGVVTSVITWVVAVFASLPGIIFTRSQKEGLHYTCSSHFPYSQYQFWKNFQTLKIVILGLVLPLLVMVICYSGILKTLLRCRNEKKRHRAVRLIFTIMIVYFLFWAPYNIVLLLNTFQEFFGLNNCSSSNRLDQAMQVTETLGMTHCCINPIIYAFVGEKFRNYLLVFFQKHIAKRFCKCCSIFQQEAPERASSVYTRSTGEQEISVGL
# Assay: not given
# Type: cell membranes, Membrane
# Conditions: hek293
row,Compound,IC50
1,Nc1ccc(S(N)(=O)=O)cc1 [SULFANILAMIDE],Not Active
2,CC1CN(c2cc3c(cc2F)c(=O)c(C(=O)O)cn3-c2ccc(F)cc2F)CCN1 (stereo not drawn) [TEMAFLOXACIN],Not Active
3,COS(C)(=O)=O [METHANESULFONIC ACID METHYL ESTER],Not Active

# Biological target: T2, Cholecystokinin receptor type A (Homo sapiens, UniProt P32238); also: in other assays of this panel Not Active means under 50% inhibition at 10 µM
# T2 sequence (P32238 whole entry): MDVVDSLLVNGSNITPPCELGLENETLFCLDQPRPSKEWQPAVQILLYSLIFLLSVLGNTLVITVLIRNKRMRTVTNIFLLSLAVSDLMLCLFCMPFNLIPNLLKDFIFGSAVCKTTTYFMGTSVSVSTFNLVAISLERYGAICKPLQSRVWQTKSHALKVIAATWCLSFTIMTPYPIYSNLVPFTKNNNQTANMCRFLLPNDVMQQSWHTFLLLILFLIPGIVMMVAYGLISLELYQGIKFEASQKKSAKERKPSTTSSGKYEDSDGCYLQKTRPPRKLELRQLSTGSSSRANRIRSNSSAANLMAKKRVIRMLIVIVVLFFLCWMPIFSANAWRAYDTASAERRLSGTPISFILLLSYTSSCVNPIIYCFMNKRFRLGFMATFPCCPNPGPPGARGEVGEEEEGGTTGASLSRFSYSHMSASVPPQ
# Assay: not given
# Type: cell membranes, Membrane
# Conditions: 1321-n1
row,Compound,IC50
1,Nc1ccc(S(N)(=O)=O)cc1 [SULFANILAMIDE],Not Active
2,CC1CN(c2cc3c(cc2F)c(=O)c(C(=O)O)cn3-c2ccc(F)cc2F)CCN1 (stereo not drawn) [TEMAFLOXACIN],Not Active
3,COS(C)(=O)=O [METHANESULFONIC ACID METHYL ESTER],Not Active

# Biological target: D(1A) dopamine receptor (Homo sapiens, UniProt P21728)
# Sequence (P21728 whole entry): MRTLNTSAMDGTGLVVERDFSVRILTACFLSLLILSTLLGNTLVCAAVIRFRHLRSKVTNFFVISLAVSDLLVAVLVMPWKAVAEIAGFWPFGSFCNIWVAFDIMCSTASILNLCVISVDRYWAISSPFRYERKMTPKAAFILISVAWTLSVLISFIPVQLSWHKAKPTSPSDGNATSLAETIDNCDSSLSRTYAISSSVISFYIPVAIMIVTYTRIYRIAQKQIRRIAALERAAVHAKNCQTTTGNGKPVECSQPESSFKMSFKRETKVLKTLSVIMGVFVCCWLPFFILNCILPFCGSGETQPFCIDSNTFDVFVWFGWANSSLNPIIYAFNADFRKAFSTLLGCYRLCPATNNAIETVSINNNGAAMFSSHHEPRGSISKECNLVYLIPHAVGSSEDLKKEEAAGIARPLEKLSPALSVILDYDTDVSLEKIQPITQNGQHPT
# Assay: DRUGMATRIX: Dopamine D1 radioligand binding (ligand: [3H] SCH-23390)
# Type: cell membranes, CHO, Membrane
# Conditions: cho; Not Active = under 50% inhibition at 10 µM
row,Compound,IC50
1,Nc1ccc(S(N)(=O)=O)cc1 [SULFANILAMIDE],Not Active
2,CC1CN(c2cc3c(cc2F)c(=O)c(C(=O)O)cn3-c2ccc(F)cc2F)CCN1 (stereo not drawn) [TEMAFLOXACIN],Not Active
3,COS(C)(=O)=O [METHANESULFONIC ACID METHYL ESTER],Not Active

# Biological target: D(3) dopamine receptor (Homo sapiens, UniProt P35462)
# Sequence (P35462 whole entry): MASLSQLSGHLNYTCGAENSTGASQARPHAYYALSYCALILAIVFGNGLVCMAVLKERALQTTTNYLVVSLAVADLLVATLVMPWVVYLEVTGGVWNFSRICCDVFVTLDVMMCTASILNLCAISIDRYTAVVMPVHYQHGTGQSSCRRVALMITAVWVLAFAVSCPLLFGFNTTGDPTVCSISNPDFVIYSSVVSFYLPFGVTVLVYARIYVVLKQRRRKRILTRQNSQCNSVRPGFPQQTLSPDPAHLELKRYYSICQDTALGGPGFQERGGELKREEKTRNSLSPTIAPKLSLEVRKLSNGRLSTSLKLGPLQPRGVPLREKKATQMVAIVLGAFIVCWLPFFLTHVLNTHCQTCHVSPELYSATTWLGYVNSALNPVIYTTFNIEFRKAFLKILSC
# Assay: DRUGMATRIX: Dopamine D3 radioligand binding (ligand: [3H] Spiperone)
# Type: cell membranes, CHO, Membrane
# Conditions: cho
row,Compound,IC50
1,Nc1ccc(S(N)(=O)=O)cc1 [SULFANILAMIDE],Not Active
2,CC1CN(c2cc3c(cc2F)c(=O)c(C(=O)O)cn3-c2ccc(F)cc2F)CCN1 (stereo not drawn) [TEMAFLOXACIN],Not Active
3,COS(C)(=O)=O [METHANESULFONIC ACID METHYL ESTER],Not Active

# Test system: not listed separately
# Assay: DRUGMATRIX: Glutamate, AMPA radioligand binding (ligand: [3H] AMPA)
# Type: cell membranes, Rattus norvegicus, Wistar, Cerebral cortex, Membrane
# Conditions: Not Active = under 50% inhibition at 10 µM
Compound,IC50,Ki
Nc1ccc(S(N)(=O)=O)cc1 [SULFANILAMIDE],Not Active,Not Active
CC1CN(c2cc3c(cc2F)c(=O)c(C(=O)O)cn3-c2ccc(F)cc2F)CCN1 (stereo not drawn) [TEMAFLOXACIN],Not Active,Not Active
COS(C)(=O)=O [METHANESULFONIC ACID METHYL ESTER],Not Active,Not Active

# Biological target: T3, Polyunsaturated fatty acid lipoxygenase ALOX15 (Oryctolagus cuniculus, UniProt P12530)
# T3 sequence (P12530 whole entry): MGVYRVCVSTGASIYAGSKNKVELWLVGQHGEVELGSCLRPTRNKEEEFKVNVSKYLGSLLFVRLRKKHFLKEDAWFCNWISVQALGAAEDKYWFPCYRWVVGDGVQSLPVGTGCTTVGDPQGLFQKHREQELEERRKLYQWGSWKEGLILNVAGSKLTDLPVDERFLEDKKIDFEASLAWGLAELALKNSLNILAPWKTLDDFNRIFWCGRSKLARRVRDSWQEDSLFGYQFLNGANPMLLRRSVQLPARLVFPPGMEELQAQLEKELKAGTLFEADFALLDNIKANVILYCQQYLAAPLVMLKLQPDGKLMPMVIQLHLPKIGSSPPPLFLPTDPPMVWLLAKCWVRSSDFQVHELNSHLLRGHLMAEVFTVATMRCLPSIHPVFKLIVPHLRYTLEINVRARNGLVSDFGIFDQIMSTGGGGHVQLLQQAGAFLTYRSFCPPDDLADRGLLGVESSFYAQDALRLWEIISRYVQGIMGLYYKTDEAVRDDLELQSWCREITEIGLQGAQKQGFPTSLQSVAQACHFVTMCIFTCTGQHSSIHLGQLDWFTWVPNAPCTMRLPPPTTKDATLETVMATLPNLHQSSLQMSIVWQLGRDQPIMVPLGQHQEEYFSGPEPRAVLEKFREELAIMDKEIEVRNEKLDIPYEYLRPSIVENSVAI
# Assay: biochemical
# Type: tissue-based, Reticulocytes
# Conditions: reticulocytes
row,Compound,IC50
1,Nc1ccc(S(N)(=O)=O)cc1 [SULFANILAMIDE],Not Active
2,CC1CN(c2cc3c(cc2F)c(=O)c(C(=O)O)cn3-c2ccc(F)cc2F)CCN1 (stereo not drawn) [TEMAFLOXACIN],Not Active
3,COS(C)(=O)=O [METHANESULFONIC ACID METHYL ESTER],Not Active

# Biological target: Mitogen-activated protein kinase 14 (Homo sapiens, UniProt Q16539)
# Sequence (Q16539 whole entry): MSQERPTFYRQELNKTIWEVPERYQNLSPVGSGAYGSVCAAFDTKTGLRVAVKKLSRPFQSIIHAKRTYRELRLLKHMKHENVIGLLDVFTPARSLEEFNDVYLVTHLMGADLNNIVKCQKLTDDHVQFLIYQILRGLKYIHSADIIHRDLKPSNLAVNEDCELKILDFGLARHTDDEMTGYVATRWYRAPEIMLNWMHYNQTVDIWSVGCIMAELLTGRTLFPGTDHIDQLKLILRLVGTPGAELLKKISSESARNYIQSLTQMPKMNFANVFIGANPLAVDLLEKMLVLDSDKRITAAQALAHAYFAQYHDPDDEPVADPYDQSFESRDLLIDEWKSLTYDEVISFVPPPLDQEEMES
# Assay: not given
# Set-up: species or system Escherichia coli
# Conditions: not given
row,Compound,IC50
1,Nc1ccc(S(N)(=O)=O)cc1 [SULFANILAMIDE],Not Active
2,CC1CN(c2cc3c(cc2F)c(=O)c(C(=O)O)cn3-c2ccc(F)cc2F)CCN1 (stereo not drawn) [TEMAFLOXACIN],Not Active
3,COS(C)(=O)=O [METHANESULFONIC ACID METHYL ESTER],Not Active

# Biological target: T4, Adenosine receptor A1 (Homo sapiens, UniProt P30542)
# T4 sequence (P30542 whole entry): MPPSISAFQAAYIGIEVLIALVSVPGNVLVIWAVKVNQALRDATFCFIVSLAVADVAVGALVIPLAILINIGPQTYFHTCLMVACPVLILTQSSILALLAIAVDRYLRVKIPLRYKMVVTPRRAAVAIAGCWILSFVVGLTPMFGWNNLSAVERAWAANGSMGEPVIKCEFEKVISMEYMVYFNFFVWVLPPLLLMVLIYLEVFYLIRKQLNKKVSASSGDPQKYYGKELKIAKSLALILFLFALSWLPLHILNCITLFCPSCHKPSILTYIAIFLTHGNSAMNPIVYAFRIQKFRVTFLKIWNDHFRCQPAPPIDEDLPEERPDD
# Assay: not given
# Type: cell membranes, CHO, Membrane
# Conditions: cho
row,Compound,IC50
1,Nc1ccc(S(N)(=O)=O)cc1 [SULFANILAMIDE],Not Active
2,CC1CN(c2cc3c(cc2F)c(=O)c(C(=O)O)cn3-c2ccc(F)cc2F)CCN1 (stereo not drawn) [TEMAFLOXACIN],Not Active
3,COS(C)(=O)=O [METHANESULFONIC ACID METHYL ESTER],Not Active
